Series [1] relates to rat. Conditions: Prenatal developmental toxicity study, wistar, Oral, Gavage/Intubation, dose end: 15 GD.
Series [2] has as its system mouse. Conditions: Prenatal developmental toxicity study, cd1, Oral, Gavage/Intubation, dose end: 15 GD.
For series [3], the system named is rabbit. Conditions: Prenatal developmental toxicity study, new zealand white, Oral, Gavage/Intubation, dose end: 19 GD.
Series [4] relates to rat. Conditions: Multigenerational reproductive toxicity study, other, Oral, Feed, dose end: 2 generation.
For series [5], the system named is rat. Conditions: Prenatal developmental toxicity study, sprague dawley, Oral, Gavage/Intubation, dose end: 19 GD.
The subject of series [6] is mouse. Conditions: Combined chronic toxicity/carcinogenicity, cd1, Oral, Feed, dose end: 24 month.
Series [7] concerns rat. Conditions: Prenatal developmental toxicity study, sprague dawley, Oral, Gavage/Intubation, dose end: 15 GD.
For series [8], the system named is rabbit. Conditions: Prenatal developmental toxicity study, new zealand white, Oral, Gavage/Intubation, dose end: 19 GD. The source holds these as a separate data set.
Series [9] deals with mouse. Conditions: Carcinogenicity, b6c3f1, Oral, Feed, dose end: 104 week.
For series [10], the system named is mouse. Conditions: Combined chronic toxicity/carcinogenicity, b6c3f1, Oral, Feed, dose end: 2 year.
Series [11] deals with rat. Conditions: Combined chronic toxicity/carcinogenicity, other, Oral, Feed, dose end: 105 week.
Series [12] concerns dog. Conditions: Subchronic oral toxicity in nonrodent, beagle, Capsule, dose end: 5 month.
Series [13] relates to rat. Conditions: Multigenerational reproductive toxicity study, wistar, Oral, Feed, dose end: 4 generation.
[14] abbreviates: group: developmental, developmental / developmental malformation / general / [other].
[15] abbreviates: group: maternal, systemic / in life observation / body weight / body weight + systemic / in life observation / food consumption / food consumption.
Where [16] appears, read: group: developmental, developmental / developmental malformation / bone / exencephaly + developmental / developmental malformation / bone / fused + developmental….
Setting [17] is: group: maternal, reproductive / reproductive performance / postimplantation loss / postimplantation loss + systemic / in life observation / body weight / ….
The mark [18] stands for this setting: group: developmental, developmental / developmental malformation / bone / [other] + developmental / developmental malformation / bone / absent + developmental / ….
The mark [19] stands for this setting: group: offspring, systemic / pathology microscopic / ureter / hyperplasia.
[20] abbreviates: group: parental, systemic / in life observation / clinical signs / motor activity.
Setting [21] is: group: developmental, developmental / developmental malformation / bone / bipartite ossification + developmental / developmental malformation / bone / ….
The mark [22] stands for this setting: group: maternal, systemic / in life observation / body weight / body weight + systemic / in life observation / clinical signs / abnormal gait + systemic / in….
Where [23] appears, read: group: cholinesterase, cholinesterase / cholinesterase / cholinesterase / brain cholinesterase (che).
Where [24] appears, read: group: cholinesterase, cholinesterase / cholinesterase / cholinesterase / brain cholinesterase (che) + cholinesterase / cholinesterase / cholinesterase / plasma ….
The mark [25] stands for this setting: group: systemic, systemic / pathology microscopic / liver / adenoma + systemic / pathology gross / liver / mass.
[26] abbreviates: group: systemic, systemic / pathology microscopic / liver / adenoma + systemic / pathology microscopic / liver / adenoma/carcinoma combined + systemic / ….
Setting [27] is: group: maternal, systemic / in life observation / body weight / body weight + systemic / in life observation / body weight / body weight gain + systemic / in….
[28] abbreviates: group: developmental, systemic / in life observation / body weight / fetal weight.
[29] abbreviates: group: maternal, reproductive / reproductive performance / implantations / implantations + systemic / in life observation / body weight / body weight gain + ….
Where [30] appears, read: group: cholinesterase, cholinesterase / cholinesterase / cholinesterase / erythrocyte cholinesterase (che) + cholinesterase / cholinesterase / cholinesterase / ….
Setting [31] is: group: systemic, systemic / organ weight / lung / absolute.
Where [32] appears, read: group: systemic, systemic / in life observation / body weight / body weight gain + systemic / pathology microscopic / kidney / regeneration.
Where [33] appears, read: group: cholinesterase, cholinesterase / cholinesterase / cholinesterase / brain cholinesterase (che) + cholinesterase / cholinesterase / cholinesterase / ….
Where [34] appears, read: group: systemic, systemic / hematology / erythrocyte (rbc) count differential / erythrocyte (rbc) + systemic / hematology / hematocrit (hct) / hematocrit (….
Setting [35] is: group: cholinesterase, cholinesterase / cholinesterase / cholinesterase / plasma cholinesterase (che).
The mark [36] stands for this setting: group: cholinesterase, cholinesterase / cholinesterase / cholinesterase / plasma cholinesterase (che) + cholinesterase / cholinesterase / cholinesterase / brain ….
[37] abbreviates: group: systemic, systemic / in life observation / clinical signs / soft stools.
[38] abbreviates: group: offspring, developmental / developmental malformation / bone / absent + developmental / developmental malformation / bone / incomplete ossification + ….
[39] abbreviates: group: offspring, systemic / in life observation / body weight / offspring (pup) weight gain.
The mark [40] stands for this setting: group: parental, systemic / in life observation / body weight / body weight gain.
The mark [41] stands for this setting: group: reproductive, reproductive / reproductive performance / fertility / fertility + reproductive / reproductive performance / pregnancy / pregnancy.
[42] abbreviates: group: reproductive, reproductive / reproductive performance / fertility / fertility + reproductive / reproductive performance / pregnancy / pregnancy + ….

By LOAEL is commonly meant the lowest dose or exposure tested at which an adverse effect was seen. The NOAEL is the highest tested level that showed no adverse finding.

In series [1] (setting [14]), `OCC#CCO` [2-Butyne-1,4-diol] displayed an LEL of 80 mg/kg/day, an LOAEL greater than 80 mg/kg/day, an NEL of 40 mg/kg/day and an NOAEL of no less than 80 mg/kg/day. Further, in [1] (setting [15]), the LEL was determined as 80 mg/kg/day, the LOAEL was greater than 80 mg/kg/day, the NEL was found to be 40 mg/kg/day and the NOAEL is no less than 80 mg/kg/day.
For `CCOCCOCC` [Ethylene glycol diethyl ether], in series [2] (setting [16]), the LEL is 500 mg/kg/day, the LOAEL is greater than 1000 mg/kg/day, the NEL was 150 mg/kg/day and the NOAEL is no less than 1000 mg/kg/day. In addition, in [2] (setting [17]), the LEL was 1000 mg/kg/day, the LOAEL was greater than 1000 mg/kg/day, the NEL worked out at 500 mg/kg/day and the NOAEL is no less than 1000 mg/kg/day. Besides, in series [3] (setting [18]), the LEL was determined as 100 mg/kg/day, the LOAEL was greater than 100 mg/kg/day, the NEL amounted to 50 mg/kg/day and the NOAEL was no less than 100 mg/kg/day. Also, in series [3] (setting [17]), the LEL stood at 100 mg/kg/day, the LOAEL was greater than 100 mg/kg/day, the NEL was 50 mg/kg/day and the NOAEL was no less than 100 mg/kg/day.
Take `COc1cc(OC)nc(NC(=O)NS(=O)(=O)Nc2ccccc2C(=O)N(C)C)n1` [Orthosulfamuron]: in series [4] (setting [19]), the LEL is 765 mg/kg/day, the lowest observed adverse effect level (LOAEL) was greater than 765 mg/kg/day, the NEL turned out to be 205 mg/kg/day and the NOAEL was no less than 765 mg/kg/day. Besides, in series [4] (setting [20]), the LEL came out at 635 mg/kg/day, the LOAEL came to 635 mg/kg/day, the NEL is 145 mg/kg/day and the NOAEL is 145 mg/kg/day.
Turning to `OC(CCl)CCl` [1,3-Dichloro-2-propanol], in series [5] (setting [21]), the LEL was determined as 90 mg/kg/day, the lowest observed adverse effect level (LOAEL) is greater than 90 mg/kg/day, the NEL stood at 30 mg/kg/day and the NOAEL was no less than 90 mg/kg/day. Further, in series [5] (setting [22]), the LOAEL is greater than 90 mg/kg/day, the NEL was found to be 10 mg/kg/day and the NOAEL was no less than 90 mg/kg/day. Further, the LEL in [5] (group: maternal, systemic / in life observation / clinical signs / motor activity + systemic / in life observation / food consumption / food consumption + …) was 30 mg/kg/day.
`COc1nn(CSP(=S)(OC)OC)c(=O)s1` [Methidathion]: the LEL in series [6] (setting [23]) is 1.6 mg/kg/day; in series [6] (setting [25]) it was 0.46 mg/kg/day. In addition, the LOAEL in [6] (setting [23]) and in series [6] (setting [26]) was 7.5 mg/kg/day throughout. Moreover, the NEL is 0.46 mg/kg/day in series [6] (setting [24]) and less than 0.46 mg/kg/day in series [6] (setting [25]). Also, the NOAEL in [6] (setting [24]) and in series [6] (setting [26]) was 1.6 mg/kg/day each time.
`CN(C)c1ccc(C(=C2C=CC(=[N+](C)C)C=C2)c2ccc(N(C)C)cc2)cc1.[Cl-]` [Gentian Violet]: the LEL was found to be 10 mg/kg/day in series [7] (setting [14]); 5 mg/kg/day in series [7] (group: maternal, systemic / in life observation / body weight / body weight gain); 0.5 mg/kg/day in series [8] (setting [28]); 0.5 mg/kg/day in series [8] (setting [29]). Moreover, the LOAEL in series [7] (setting [14]) was greater than 10 mg/kg/day; in series [7] (setting [27]), greater than 10 mg/kg/day; in [8] (setting [28]), greater than 2 mg/kg/day; in series [8] (setting [29]), greater than 2 mg/kg/day. The NEL in series [7] (setting [14]) was 5 mg/kg/day; in series [7] (setting [27]), 2.5 mg/kg/day; in [8] (setting [28]), less than 0.5 mg/kg/day; in [8] (setting [29]), less than 0.5 mg/kg/day. Further, the NOAEL in [7] (setting [14]) is no less than 10 mg/kg/day; in series [7] (setting [27]), no less than 10 mg/kg/day; in [8] (setting [28]) it was no less than 2 mg/kg/day; in series [8] (setting [29]), no less than 2 mg/kg/day.
For `CCCSP(=O)(OCC)SCCC` [Ethoprop], the LEL in [9] (setting [30]) came out at 0.254 mg/kg/day; in [9] (setting [31]) it was 0.032 mg/kg/day; in series [10] (setting [30]), 0.306 mg/kg/day; in series [10] (group: systemic, systemic / pathology microscopic / kidney / regeneration), 0.306 mg/kg/day; in [11] (setting [33]), 3 mg/kg/day; in series [11] (setting [34]), 20 mg/kg/day. Also, the LEL in series [12] (setting [35]) and in series [12] (setting [37]) was 0.025 mg/kg/day in each case. In addition, the LOAEL was found to be 0.254 mg/kg/day in [9] (setting [30]); 3.96 mg/kg/day in series [9] (group: systemic, systemic / in life observation / body weight / body weight + systemic / in life observation / body weight / body weight gain); 0.306 mg/kg/day in [10] (setting [30]); 4.44 mg/kg/day in series [10] (group: systemic, systemic / in life observation / body weight / body weight gain); 3 mg/kg/day in series [11] (setting [33]); 20 mg/kg/day in [11] (setting [34]). In addition, the LOAEL in [12] (setting [35]) is 0.025 mg/kg/day; in [12] (setting [37]) it was greater than 1 mg/kg/day. Moreover, the NEL in series [9] (setting [30]) is 0.026 mg/kg/day; in [9] (setting [31]), less than 0.032 mg/kg/day; in [10] (setting [30]), 0.032 mg/kg/day; in [10] (setting [32]) it was 0.032 mg/kg/day; in [11] (setting [33]), 0.05 mg/kg/day; in series [11] (group: systemic, systemic / organ weight / kidney / relative to body weight + systemic / organ weight / thyroid gland / relative to body weight), 3 mg/kg/day. Further, the NEL in [12] (setting [36]) and in [12] (setting [37]) was 0.01 mg/kg/day in each case. The NOAEL was determined as 0.026 mg/kg/day in [9] (setting [30]); 0.254 mg/kg/day in series [9] (group: systemic, systemic / in life observation / body weight / body weight + systemic / in life observation / body weight / body weight gain + systemic / in…); 0.032 mg/kg/day in series [10] (setting [30]); 0.306 mg/kg/day in [10] (setting [32]); 0.05 mg/kg/day in [11] (setting [33]); 3 mg/kg/day in series [11] (setting [34]). The results for the NOAEL in series [12] (setting [36]) and in series [12] (setting [37]) were 0.01 mg/kg/day and no less than 1 mg/kg/day, respectively.
`CC(O)CCO` (stereo not drawn) [1,3-Butanediol]: the lowest observed adverse effect level (LOAEL) in series [13] (setting [38]), in series [13] (setting [40]) and in [13] (setting [42]) was greater than 12000 mg/kg/day each time. For the same molecule, the NOAEL in series [13] (setting [38]), in [13] (setting [40]) and in series [13] (setting [42]) was no less than 12000 mg/kg/day each time. Further, the LEL in [13] (setting [39]), in [13] (setting [40]) and in [13] (setting [41]) was 2500 mg/kg/day each time. Further, the NEL in series [13] (setting [39]), in series [13] (setting [40]) and in series [13] (setting [41]) was less than 2500 mg/kg/day each time.

The values are drawn from EPA's ToxRefDB 2.
